According to the NIST ThermoML archive (doi:10.1016/j.jct.2005.07.009):

Assays:
[1] = xn = mol fraction of the nth substance listed; details: 298.15 K, 101 kPa, Liquid, Vibrating tube method
[2] = excess molar enthalpy (molar enthalpy of mixing); xn = mol fraction of the nth substance listed; details: 298.15 K, 101 kPa, Liquid

BrCCCCCBr [1,5-dibromopentane] + CCOC(=O)CC
Details	excess molar enthalpy [kcal/mol]	mass density [kg/m3]
[1], x2 = 0.1344	–	1600.12
[1], x2 = 0.2009	–	1552.01
[1], x2 = 0.263	–	1506.12
[1], x2 = 0.3276	–	1457.5
[1], x2 = 0.3859	–	1412.68
[1], x2 = 0.4471	–	1364.74
[1], x2 = 0.5096	–	1314.84
[1], x2 = 0.6206	–	1223.48
[1], x2 = 0.6836	–	1170.2
[1], x2 = 0.7919	–	1075.76
[1], x2 = 0.8414	–	1031.42
[1], x2 = 0.8957	–	981.96
[2], x2 = 0.0603	0.00839	–
[2], x2 = 0.1247	0.0137	–
[2], x2 = 0.193	0.0172	–
[2], x2 = 0.261	0.0185	–
[2], x2 = 0.3249	0.0179	–
[2], x2 = 0.3861	0.0152	–
[2], x2 = 0.4412	0.0111	–
[2], x2 = 0.4896	0.007	–
[2], x2 = 0.5244	0.00378	–
[2], x2 = 0.5365	0.00325	–
[2], x2 = 0.5747	-0.000717	–
[2], x2 = 0.5773	-0.00105	–
[2], x2 = 0.6302	-0.00359	–
[2], x2 = 0.6884	-0.00526	–
[2], x2 = 0.752	-0.00629	–
[2], x2 = 0.8187	-0.00576	–
[2], x2 = 0.8848	-0.00461	–
[2], x2 = 0.9461	-0.00289	–

BrCCCCCCBr [1,6-dibromohexane] + CCOC(C)=O
Details	excess molar enthalpy [kcal/mol]	mass density [kg/m3]
[1], x2 = 0.1101	–	1558.02
[1], x2 = 0.2056	–	1515.22
[1], x2 = 0.2841	–	1476.78
[1], x2 = 0.3679	–	1432.01
[1], x2 = 0.4348	–	1393.28
[1], x2 = 0.5035	–	1350.27
[1], x2 = 0.623	–	1266.72
[1], x2 = 0.733	–	1177.88
[1], x2 = 0.8165	–	1101.03
[1], x2 = 0.8582	–	1059.17
[1], x2 = 0.8988	–	1015.65
[1], x2 = 0.9703	–	932.2
[2], x2 = 0.0852	0.0323	–
[2], x2 = 0.179	0.0516	–
[2], x2 = 0.2657	0.0644	–
[2], x2 = 0.3506	0.0739	–
[2], x2 = 0.4238	0.0791	–
[2], x2 = 0.489	0.0806	–
[2], x2 = 0.5186	0.0798	–
[2], x2 = 0.5344	0.0792	–
[2], x2 = 0.5598	0.078	–
[2], x2 = 0.6031	0.0735	–
[2], x2 = 0.6495	0.0677	–
[2], x2 = 0.7011	0.0608	–
[2], x2 = 0.7507	0.0522	–
[2], x2 = 0.8025	0.0431	–
[2], x2 = 0.8542	0.033	–
[2], x2 = 0.9062	0.0221	–
[2], x2 = 0.9578	0.0106	–

BrCCCCCCBr [1,6-dibromohexane] + CCCC(=O)OCC
Details	excess molar enthalpy [kcal/mol]	mass density [kg/m3]
[1], x2 = 0.0741	–	1554.45
[1], x2 = 0.1407	–	1511.27
[1], x2 = 0.2026	–	1470.35
[1], x2 = 0.2669	–	1427.12
[1], x2 = 0.3292	–	1384.45
[1], x2 = 0.4493	–	1300.05
[1], x2 = 0.5934	–	1194.98
[1], x2 = 0.6267	–	1170.08
[1], x2 = 0.6854	–	1125.55
[1], x2 = 0.7302	–	1091.1
[1], x2 = 0.7843	–	1048.89
[1], x2 = 0.8939	–	961.41
[2], x2 = 0.0629	0.00655	–
[2], x2 = 0.1341	0.0105	–
[2], x2 = 0.2059	0.0133	–
[2], x2 = 0.2734	0.014	–
[2], x2 = 0.3411	0.0136	–
[2], x2 = 0.4017	0.0124	–
[2], x2 = 0.4524	0.0103	–
[2], x2 = 0.4952	0.00796	–
[2], x2 = 0.5312	0.00562	–
[2], x2 = 0.5662	0.00308	–
[2], x2 = 0.6022	0.000191	–
[2], x2 = 0.6161	-0.000359	–
[2], x2 = 0.6589	-0.00213	–
[2], x2 = 0.7115	-0.00304	–
[2], x2 = 0.7699	-0.00366	–
[2], x2 = 0.8324	-0.00347	–
[2], x2 = 0.8956	-0.00213	–
[2], x2 = 0.9514	-0.000884	–

BrCCBr [1,2-dibromoethane] + CCCC(=O)OCC
Details	excess molar enthalpy [kcal/mol]	mass density [kg/m3]
[1], x2 = 0.08	–	2015.53
[1], x2 = 0.1235	–	1937.68
[1], x2 = 0.1689	–	1859.7
[1], x2 = 0.2131	–	1787.18
[1], x2 = 0.311	–	1637.22
[1], x2 = 0.3652	–	1559.91
[1], x2 = 0.424	–	1480.28
[1], x2 = 0.4807	–	1407.25
[1], x2 = 0.5444	–	1329.31
[1], x2 = 0.6754	–	1181.51
[1], x2 = 0.7549	–	1098.99
[1], x2 = 0.8227	–	1032.55
[1], x2 = 0.9026	–	958.45
[2], x2 = 0.0385	0.005	–
[2], x2 = 0.0839	0.00753	–
[2], x2 = 0.1324	0.00841	–
[2], x2 = 0.1841	0.00779	–
[2], x2 = 0.2355	0.00421	–
[2], x2 = 0.2844	-0.0011	–
[2], x2 = 0.3336	-0.00743	–
[2], x2 = 0.3803	-0.0131	–
[2], x2 = 0.4245	-0.0174	–
[2], x2 = 0.4313	-0.0181	–
[2], x2 = 0.458	-0.0205	–
[2], x2 = 0.5024	-0.0217	–
[2], x2 = 0.5565	-0.023	–
[2], x2 = 0.6234	-0.0229	–
[2], x2 = 0.6941	-0.0215	–
[2], x2 = 0.7723	-0.0185	–
[2], x2 = 0.851	-0.0141	–
[2], x2 = 0.9264	-0.00803	–
